Source: patent US5248680A, “Zwitterionic compounds and their n-halo derivatives for use in the treatment of clinical conditions” (Bloomfield D.A., priority 1990, dated 1993)
Where two headings read alike, the source gives them in different places.

How the values were obtained:
[1] = test system: peripheral blood neutrophils; assay: Chemiluminescence (reactive oxidant production) of peripheral blood neutrophils stimulated with calcium ionophore; format: cell-based; conditions: Homo sapiens, Neutrophil, mean ± S.E.M.; for activity at 10000 µM: 10 mM zwitterionic compound, normal neutrophils, read-out: Chemiluminescence activity of normal neutrophils; for activity at 40000 µM: 40 mM taurine, read-out: Chemiluminesence production by neutrophils
Excerpt: Patients were selected with mild to moderate plaque-type psoriasis on the basis of clinical and histological evidence of disease. Normal volunteers were selected from laboratory personnel without personal or family history of inflammatory disease. Disease control groups included: a) patients with eczema, acne and dermatitis herpetiformis; and b) patients with Crohn's disease and ulcerative colitis. Blood samples from each subject were drawn into sodium heparin Vacutainers® (Vacutainer is a Trade Mark). The inflammatory cells (neutrophils) were isolated by dextran sedimentation and FICOLL-PAQUE®(FICOLL-PLAQUE is a Trade Mark) gradient centrifugation. Viability and purity were assessed by fluorescence microscopy, using ethidium bromide and acridine orange staining. […] Chemiluminescence activity of the peripheral blood neutrophils was tested using the method of Bloomfield, F. J. and Young, M. M. (Inflammation, (1982) 6, 257, hereby incorporated by reference), using calcium ionophore (2μ Molar) as stimulant instead of opsonized zymosan. Chemiluminescence is a measure of the production of reactive oxidants by neutrophils in response to an inflammatory stimulus. It was observed that there was significant reduction in chemiluminescence activity by neutrophils in the taurine-treated and HEPES-treated cells compared to control cells in all groups.

myeloperoxidase [2] = assay: Myeloperoxidase activity of neutrophils after preincubation with zwitterion; format: cell-based, human; conditions: mean ± S.E.M.; for Myeloperoxidase activity of normal neutrophils: 10 mM zwitterionic compound; for Myeloperoxidase activity of neutrophils: 40 mM taurine
Excerpt: (§1) Patients were selected with mild to moderate plaque-type psoriasis on the basis of clinical and histological evidence of disease. Normal volunteers were selected from laboratory personnel without personal or family history of inflammatory disease. Disease control groups included: a) patients with eczema, acne and dermatitis herpetiformis; and b) patients with Crohn's disease and ulcerative colitis.
(§2) Blood samples from each subject were drawn into sodium heparin Vacutainers® (Vacutainer is a Trade Mark). The inflammatory cells (neutrophils) were isolated by dextran sedimentation and FICOLL-PAQUE®(FICOLL-PLAQUE is a Trade Mark) gradient centrifugation. Viability and purity were assessed by fluorescence microscopy, using ethidium bromide and acridine orange staining.

leukotriene B4 = assay: Degradation of standard leukotriene B4 measured by radioimmunoassay; format: biochemical; conditions: data not shown
Excerpt: (§3) It was therefore proposed to test the hypothesis that HEPES could inactivate leukotriene B4 by indirect stimulation of MPO leading to increased production of hypochlorous acid from cellular hydrogen peroxide.

neutrophils [3] = assay: Degranulation of lysosomal enzymes by neutrophils stimulated with calcium ionophore; format: cell-based, human; conditions: result in words; taurine data not shown
Excerpt: as §1, §2
Stimulation of the inflammatory process in neutrophils, not only activates the respiratory burst, but as a consequence, is also associated with release of lysosomal enzymes from the cells in a process called degranulation. Degranulation of lysosomal enzymes was stimulated in neutrophils from each group of subjects, using calcium ionophore as inflammatory stimulant.

[4] = test system: carrageenan induced paw oedema; assay: Carrageenan-induced paw oedema in rats; format: in vivo, rat; conditions: for percentage increase in paw volume: 1 h after carrageenan, mean ± S.E.M.; for reduction in paw oedema: versus control
Experimental: The studies were conducted on inbred Wistar strain albino rats (120-180 g) of either sex. The rats were housed in colony cages at an ambient temperature of 25°±2° C. and fed on standard pellet chow. The rats were anaesthetized using pentobarbitone sodium, their hind paws were marked and the volume measured. […] The control animals were injected with 10 μl of 0.9% saline solution. […] One hour following the carrageenan injection the hind paw volume was measured again. A 5 ml blood sample was taken from each animal into sodium heparin Vacutainers. Chemiluminescence activity was assayed in the PBMC isolated from each animal.
These studies were also conducted on inbred Wistar strain albino rats (120-180 g) of either sex. The rats were anaesthetized using pentobarbitone sodium prior to marking each hind paw and measuring paw volume. […] The control animals received 0.5 ml of 0.9% NaCl subcutaneously. 30 min after the injections were administered, paw oedema was induced using carrageenan. One hour following carrageenan administration the hind paw volume was measured. A 5 ml blood sample was taken from each animal into sodium heparin Vacutainers and used for chemiluminescence measurement.

neutrophils [5] = assay: Leukotriene B4 in supernatants of stimulated neutrophils; format: cell-based, human; conditions: Homo sapiens, Neutrophil, 40 mM taurine, mean ± S.E.M., read-out: Leukotriene B4 production by neutrophils
Excerpt: as §1, §2, §3
For the methodology used in the in vitro studies hereinafter described reference should be made to McLoughlin, D. M. et al. Biochem. Soc. Trans. (1991) 19:73-78 hereby incorporated by reference, except where otherwise stated.

myeloperoxidase [6] = assay: Binding of zwitterion to myeloperoxidase (preliminary studies)
neutrophils [7] = assay: Hypochlorous acid production by neutrophils; format: cell-based; conditions: Homo sapiens, Neutrophil, 40 mM taurine, mean ± S.E.M.
Excerpt: as §1, §2

monocytes = assay: Leukotriene B4 in stimulated monocytes; format: cell-based, human; conditions: preincubation with 10 mM HEPES or 40 mM taurine; data not shown
Excerpt: as §3

catalase = assay: Catalase activity of neutrophils after preincubation; format: cell-based, human; conditions: neutrophils preincubated with HEPES or taurine; data not shown

Compound: O=S(=O)(O)CCCN1CCN(CCO)CC1 [(H)EPPS, N-2-hydroxyethylpiperazine-N'3-propanesulphonic acid]
- activity at 10000 µM [1]: 50.9 ± 7.38%
- Myeloperoxidase activity of normal neutrophils (myeloperoxidase [2]): marked effect on MPO activity
- Myeloperoxidase activity of normal neutrophils (myeloperoxidase [2]; 10000 µM): 348 ± 15.1 percentage activity of control

Compound: NC(=O)CNCCS(=O)(=O)O [ACES, N-(2-acetamido)-2-aminoethanesulphonic acid]
- activity at 10000 µM [1]: 12.9 ± 2.75%
- Myeloperoxidase activity of normal neutrophils (myeloperoxidase [2]): marked effect on MPO activity
- Myeloperoxidase activity of normal neutrophils (myeloperoxidase [2]; listed as ACE, 10000 µM): 166 ± 18.2 percentage activity of control

Compound: NC(=O)CN(CC(=O)O)CC(=O)O [ADA, N-(2-acetamido)iminodiacetic acid]
- activity at 10000 µM [1]: 1.45 ± 0.27%
- Myeloperoxidase activity of normal neutrophils (myeloperoxidase [2]): 214 ± 32.3 percentage activity of control

Compound: O=S(=O)(O)CCN(CCO)CCO [BES, N,N-bis(2-hydroxyethyl)-2-aminoethanesulphonic acid]
- activity at 10000 µM [1]: 4.95 ± 0.93%
- Myeloperoxidase activity of normal neutrophils (myeloperoxidase [2]): lesser effect on MPO stimulation
- Myeloperoxidase activity of normal neutrophils (myeloperoxidase [2]; 10000 µM): 138 ± 14.1 percentage activity of control

Compound: O=S(=O)(O)CCCNC1CCCCC1 [CAPS, 3-(cyclohexylamino)propanesulphonic acid]
- activity at 10000 µM [1]: 87.9 ± 8.87%
- Myeloperoxidase activity of normal neutrophils (myeloperoxidase [2]): little effect
- Myeloperoxidase activity of normal neutrophils (myeloperoxidase [2]; 10000 µM): 115 ± 3.6 percentage activity of control

Compound: O=S(=O)(O)CCNC1CCCCC1 [CHES, 2-(cyclohexylamino)ethanesulphonic acid]
- activity at 10000 µM [1]: 68.4 ± 6.36%
- Myeloperoxidase activity of normal neutrophils (myeloperoxidase [2]): little effect
- Myeloperoxidase activity of normal neutrophils (myeloperoxidase [2]; 10000 µM): 120 ± 4.8 percentage activity of control

Compound: O=S(=O)(O)CCN1CCOCC1 [MES, 2(N-morpholino)ethanesulphonic acid]
- activity at 10000 µM [1]: 3.15 ± 0.67%
- Myeloperoxidase activity of normal neutrophils (myeloperoxidase [2]): marked effect on MPO activity
- Myeloperoxidase activity of normal neutrophils (myeloperoxidase [2]; 10000 µM): 264 ± 15.9 percentage activity of control

Compound: O=S(=O)(O)CCCN1CCOCC1 [MOPS, 3-(N-morpholino)propanesulphonic]
- activity at 10000 µM [1]: 7.27 ± 1.53%
- Myeloperoxidase activity of normal neutrophils (myeloperoxidase [2]): lesser effect on MPO stimulation
- Myeloperoxidase activity of normal neutrophils (myeloperoxidase [2]; 10000 µM): 134 ± 13.4 percentage activity of control

Compound: O=S(=O)(O)CCN1CCN(CCS(=O)(=O)O)CC1 [PIPES, piperazine-N,N'bis(2-ethanesulphonic acid]
- activity at 10000 µM [1]: 4.08 ± 0.97%
- Myeloperoxidase activity of normal neutrophils (myeloperoxidase [2]): marked effect on MPO activity
- Myeloperoxidase activity of normal neutrophils (myeloperoxidase [2]; 10000 µM): 199 ± 23.1 percentage activity of control

Compound: O=S(=O)(O)CCNC(CO)(CO)CO [TES, N-N[tris(hydroxymethyl)-methyl]-2-aminoethanesulphonic acid]
- activity at 10000 µM [1]: 15.6 ± 2.41%
- Myeloperoxidase activity of normal neutrophils (myeloperoxidase [2]): lesser effect on MPO stimulation
- Myeloperoxidase activity of normal neutrophils (myeloperoxidase [2]; 10000 µM): 129 ± 20.1 percentage activity of control

Compound: OCl [hypochlorous acid, reference compound]
- degradation of standard leukotriene B4 (leukotriene B4): cause degradation of standard leukotriene B4

Compound: O=S(=O)(O)CCNCl [taurine chloramine]
- degradation of standard leukotriene B4 (leukotriene B4): cause degradation of standard leukotriene B4

Compound: NCCS(=O)(=O)O [taurine, 2-aminoethanesulphonic acid]
- degranulation by preincubated neutrophils compared to control cells (neutrophils [3]): no significant difference in degranulation
- percentage increase in paw volume ([4]; I.C.V. 50 μg taurine): 30 ± 4 percentage increase in paw volume
- percentage increase in paw volume ([4]; I.C.V. 500 μg taurine): 21 ± 8 percentage increase in paw volume
- percentage increase in paw volume ([4]; S.C. 500 μg taurine): 27 ± 2 percentage increase in paw volume
- reduction in paw oedema ([4]; i.c.v. 50 μg taurine): 21%
- reduction in paw oedema ([4]; i.c.v. 500 μg taurine): 54%
- reduction in paw oedema ([4]; s.c. 500 μg taurine): 18%
- activity at 40000 µM (neutrophils [5]; Normal): 64.8 ± 8.3%
- activity at 40000 µM (neutrophils [5]; Psoriasis): 66.5 ± 10.9%
- activity at 40000 µM (neutrophils [5]; disease controls (a)): 73.3 ± 9.95%
- activity at 40000 µM (neutrophils [5]; disease controls (b)): 78 ± 8.6%
- activity at 40000 µM ([1]; Normal): 12.7 ± 1.77%
- activity at 40000 µM ([1]; Psoriasis): 15.5 ± 2.1%
- activity at 40000 µM ([1]; disease controls (a)): 20.3 ± 1.85%
- activity at 40000 µM ([1]; disease controls (b)): 30.5 ± 8.6%
- binding to the enzyme (MPO) (myeloperoxidase [6]): did not bind to the enzyme
- activity at 40000 µM (neutrophils [7]; Normal): 152 ± 14.1%
- activity at 40000 µM (neutrophils [7]; Psoriasis): 167 ± 34.7%
- activity at 40000 µM (neutrophils [7]; disease controls (a)): 142 ± 32.1%
- reduction of leukotriene B4 in monocytes (monocytes): also demonstrated in monocytes
- effect on catalase activity (catalase): no effect on catalase activity
- Myeloperoxidase activity of neutrophils (myeloperoxidase [2]; Normal): 564 ± 38.3 percentage activity of control
- Myeloperoxidase activity of neutrophils (myeloperoxidase [2]; Psoriasis): 591 ± 61.8 percentage activity of control
- Myeloperoxidase activity of neutrophils (myeloperoxidase [2]; disease controls (a)): 473 ± 33.7 percentage activity of control
- Myeloperoxidase activity of neutrophils (myeloperoxidase [2]; disease controls (b)): 485 ± 49.2 percentage activity of control
